Blank lines part the entries; values can stand above or below the compound they belong to.
Assays:
Cytochrome P450 2E1 = Cytochrome P450 2E1 (Homo sapiens, UniProt P05181); experiment: Mechanism based inhibition of human cytochrome P450 2E1; assay type: ADME
Cytochrome P450 2A6 = biological target: T1, Cytochrome P450 2A6 (Homo sapiens, UniProt P11509); experiment: Mechanism based inhibition of human cytochrome P450 2A6; assay type: ADME
T1 sequence (P11509 whole entry): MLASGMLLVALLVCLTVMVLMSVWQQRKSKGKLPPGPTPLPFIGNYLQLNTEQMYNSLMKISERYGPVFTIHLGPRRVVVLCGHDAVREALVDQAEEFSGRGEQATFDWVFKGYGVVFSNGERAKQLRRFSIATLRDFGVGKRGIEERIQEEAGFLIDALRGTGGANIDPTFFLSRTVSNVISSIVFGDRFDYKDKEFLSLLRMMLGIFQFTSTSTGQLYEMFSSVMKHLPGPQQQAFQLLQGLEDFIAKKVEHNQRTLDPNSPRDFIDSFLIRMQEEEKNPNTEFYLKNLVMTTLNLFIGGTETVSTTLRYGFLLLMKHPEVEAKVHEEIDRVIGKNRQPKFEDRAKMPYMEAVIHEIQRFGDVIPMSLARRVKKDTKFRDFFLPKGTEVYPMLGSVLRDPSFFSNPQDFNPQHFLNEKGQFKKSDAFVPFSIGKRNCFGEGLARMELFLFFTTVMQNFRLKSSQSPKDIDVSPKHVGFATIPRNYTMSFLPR

Cytochrome P450 2C8 [1] = biological target: T2, Cytochrome P450 2C8 (Homo sapiens, UniProt P10632)
T2 sequence (P10632 whole entry): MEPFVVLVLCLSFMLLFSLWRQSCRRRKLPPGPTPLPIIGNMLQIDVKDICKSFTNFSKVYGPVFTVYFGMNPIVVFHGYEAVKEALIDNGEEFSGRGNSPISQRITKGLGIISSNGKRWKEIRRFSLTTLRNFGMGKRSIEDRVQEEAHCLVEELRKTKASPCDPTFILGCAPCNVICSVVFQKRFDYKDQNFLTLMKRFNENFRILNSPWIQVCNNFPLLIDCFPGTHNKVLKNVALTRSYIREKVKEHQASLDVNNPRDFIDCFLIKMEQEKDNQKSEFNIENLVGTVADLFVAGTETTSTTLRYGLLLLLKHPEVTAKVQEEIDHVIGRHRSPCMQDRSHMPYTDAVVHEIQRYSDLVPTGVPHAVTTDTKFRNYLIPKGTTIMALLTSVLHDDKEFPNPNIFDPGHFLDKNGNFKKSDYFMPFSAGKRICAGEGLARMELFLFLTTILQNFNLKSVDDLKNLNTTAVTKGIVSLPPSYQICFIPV
Description: (§5) Mechanism based inhibition of human cytochrome P450 2C8 measured by paclitaxel hydroxylation using human liver microsomes

Cytochrome P450 2C8 [2] = biological target: T2, Cytochrome P450 2C8; remark: listed apart in the source
Description: (§6) Mechanism based inhibition of human cytochrome P450 2C8 measured by paclitaxel hydroxylation using a recombinant system

CYP2C8 [3] = biological target: T3, CYP2C8 (Homo sapiens, UniProt P10632); experiment: in vitro; settings: human liver microsomes, probe paclitaxel
T3 sequence (P10632 whole entry): T2 sequence (P10632 whole entry)
Description: as §5

CYP2C8 [4] = biological target: T3, CYP2C8; experiment: in vitro; settings: recombinant CYP2C8, probe paclitaxel
Description: as §6

CYP1A2 [5] = biological target: T4, CYP1A2 (Rattus norvegicus, UniProt P04799); experiment: (§1) Mechanism based inhibition of rat cytochrome P450 CYP1A2 measured by 7-methoxyresorufin O-demethylation (MROD); assay type: ADME; settings: rat, probe 7-methoxyresorufin (O-demethylation, MROD)
T4 sequence (P04799 whole entry): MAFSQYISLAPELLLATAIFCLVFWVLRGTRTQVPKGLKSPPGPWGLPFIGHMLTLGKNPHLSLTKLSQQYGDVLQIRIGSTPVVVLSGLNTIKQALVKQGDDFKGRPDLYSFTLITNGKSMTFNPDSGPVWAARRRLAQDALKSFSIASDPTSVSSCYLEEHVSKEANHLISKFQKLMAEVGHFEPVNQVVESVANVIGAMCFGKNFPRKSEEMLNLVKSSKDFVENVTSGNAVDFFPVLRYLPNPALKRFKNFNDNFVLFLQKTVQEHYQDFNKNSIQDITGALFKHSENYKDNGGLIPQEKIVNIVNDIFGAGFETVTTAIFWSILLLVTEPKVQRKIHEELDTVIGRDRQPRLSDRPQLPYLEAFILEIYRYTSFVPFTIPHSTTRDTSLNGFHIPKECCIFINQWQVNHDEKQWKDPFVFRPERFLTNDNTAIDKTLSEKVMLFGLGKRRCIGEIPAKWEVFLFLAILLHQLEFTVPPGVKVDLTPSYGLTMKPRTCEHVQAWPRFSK

Cytochrome P450 1A2 = biological target: T5, Cytochrome P450 1A2 (Rattus norvegicus, UniProt P04799); experiment: as §1; assay type: ADME
T5 sequence (P04799 whole entry): T4 sequence (P04799 whole entry)

CYP2B1 = biological target: T6, CYP2B1 (Rattus norvegicus, UniProt P00176); experiment: (§2) Mechanism based inhibition of rat cytochrome P450 CYP2B1 measured by 7-pentoxyresorufin […] activity (PROD); assay type: ADME; settings: rat, probe 7-pentoxyresorufin ([…], PROD)
T6 sequence (P00176 whole entry): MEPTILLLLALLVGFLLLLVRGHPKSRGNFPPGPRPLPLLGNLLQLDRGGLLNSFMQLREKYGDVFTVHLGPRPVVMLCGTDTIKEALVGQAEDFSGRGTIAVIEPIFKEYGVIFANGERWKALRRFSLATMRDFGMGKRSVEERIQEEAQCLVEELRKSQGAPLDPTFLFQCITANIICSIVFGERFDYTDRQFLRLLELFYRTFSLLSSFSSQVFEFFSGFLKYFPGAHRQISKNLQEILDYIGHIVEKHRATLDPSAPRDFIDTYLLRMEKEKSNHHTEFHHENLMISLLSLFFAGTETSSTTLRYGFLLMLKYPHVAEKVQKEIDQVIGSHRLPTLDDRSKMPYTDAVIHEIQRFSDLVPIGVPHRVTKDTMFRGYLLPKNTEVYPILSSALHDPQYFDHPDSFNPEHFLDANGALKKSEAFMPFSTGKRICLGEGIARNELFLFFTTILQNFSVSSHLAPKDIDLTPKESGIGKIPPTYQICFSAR

Cytochrome P450 2B1 [6] = biological target: T7, Cytochrome P450 2B1 (Rattus norvegicus, UniProt P00176); experiment: as §2; assay type: ADME
T7 sequence (P00176 whole entry): T6 sequence (P00176 whole entry)

CYP1A2 [7] = biological target: T8, CYP1A2 (Homo sapiens, UniProt P05177); experiment: Mechanism based inhibition of human cytochrome P450 1A2; assay type: ADME
T8 sequence (P05177 whole entry): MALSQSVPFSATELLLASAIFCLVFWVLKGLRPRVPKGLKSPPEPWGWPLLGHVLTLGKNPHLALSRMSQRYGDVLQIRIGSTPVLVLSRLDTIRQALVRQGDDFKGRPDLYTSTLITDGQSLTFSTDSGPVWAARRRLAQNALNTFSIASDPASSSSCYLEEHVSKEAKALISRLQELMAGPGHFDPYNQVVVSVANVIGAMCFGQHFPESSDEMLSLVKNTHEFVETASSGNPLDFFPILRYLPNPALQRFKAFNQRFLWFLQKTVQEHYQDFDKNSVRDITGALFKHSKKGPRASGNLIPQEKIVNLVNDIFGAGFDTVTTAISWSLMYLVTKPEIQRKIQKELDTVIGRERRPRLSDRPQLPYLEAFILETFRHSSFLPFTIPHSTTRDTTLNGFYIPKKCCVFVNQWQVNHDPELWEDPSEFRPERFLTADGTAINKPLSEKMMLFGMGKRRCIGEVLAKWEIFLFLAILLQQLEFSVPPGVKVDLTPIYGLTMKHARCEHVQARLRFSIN

Cytochrome P450 2B1 [8] = biological target: T7, Cytochrome P450 2B1; experiment: Mechanism based inhibition of rat cytochrome P450 CYP2B1 measured by androstenedione 16-beta-hydroxylation and R- and S- warfarin hydroxylation; assay type: ADME
CYP2B6 [9] = biological target: T9, CYP2B6 (Homo sapiens, UniProt P20813); experiment: (§3) Mechanism based inhibition of human cytochrome P450 2B6 using human liver microsomes; settings: human, human liver microsomes
T9 sequence (P20813 whole entry): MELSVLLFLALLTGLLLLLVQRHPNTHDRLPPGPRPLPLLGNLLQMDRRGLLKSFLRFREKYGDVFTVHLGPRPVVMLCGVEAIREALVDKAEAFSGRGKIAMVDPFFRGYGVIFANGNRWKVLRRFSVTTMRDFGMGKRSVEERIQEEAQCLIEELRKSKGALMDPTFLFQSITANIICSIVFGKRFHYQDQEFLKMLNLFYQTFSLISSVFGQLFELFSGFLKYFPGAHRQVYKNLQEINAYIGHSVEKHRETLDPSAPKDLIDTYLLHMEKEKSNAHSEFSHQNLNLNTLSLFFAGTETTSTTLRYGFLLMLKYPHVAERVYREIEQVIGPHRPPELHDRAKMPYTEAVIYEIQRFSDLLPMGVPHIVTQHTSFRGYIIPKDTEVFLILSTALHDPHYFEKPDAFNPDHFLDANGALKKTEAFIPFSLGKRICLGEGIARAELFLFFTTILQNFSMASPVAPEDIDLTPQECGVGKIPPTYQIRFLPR

Cytochrome P450 2B6 [10] = biological target: T10, Cytochrome P450 2B6 (Homo sapiens, UniProt P20813); experiment: as §3
T10 sequence (P20813 whole entry): T9 sequence (P20813 whole entry)

CYP2B6 [11] = biological target: T9, CYP2B6; experiment: (§4) Mechanism based inhibition of human cytochrome P450 2B6 using recombinant CYP2B6; settings: human, recombinant CYP2B6
Cytochrome P450 2B6 [12] = biological target: T10, Cytochrome P450 2B6; experiment: as §4

Chain of Cytochrome P450 2E1 (P05181 whole entry): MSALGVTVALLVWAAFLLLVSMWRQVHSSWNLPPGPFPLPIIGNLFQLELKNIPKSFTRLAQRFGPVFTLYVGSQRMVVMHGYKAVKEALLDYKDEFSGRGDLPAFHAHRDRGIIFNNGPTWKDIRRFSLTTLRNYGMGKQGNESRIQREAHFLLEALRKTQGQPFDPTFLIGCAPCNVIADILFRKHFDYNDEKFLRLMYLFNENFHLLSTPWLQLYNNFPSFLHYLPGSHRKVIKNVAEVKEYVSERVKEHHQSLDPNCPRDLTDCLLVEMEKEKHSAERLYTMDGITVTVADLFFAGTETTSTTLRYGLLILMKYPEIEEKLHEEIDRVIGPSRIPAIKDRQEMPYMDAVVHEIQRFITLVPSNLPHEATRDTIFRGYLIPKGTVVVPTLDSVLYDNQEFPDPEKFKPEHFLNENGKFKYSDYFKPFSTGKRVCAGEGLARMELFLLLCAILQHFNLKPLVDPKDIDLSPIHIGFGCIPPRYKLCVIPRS

Compound: CCN(CC)C(=S)S [DITIOCARB]
mechanism based inhibition (Cytochrome P450 2E1): Cytochrome P450 mechanistic inhibitor: PMID 9695717 | mechanism based inhibition (Cytochrome P450 2A6): Cytochrome P450 mechanistic inhibitor: PMID 9695717

Compound: NNCCc1ccccc1 [PHENELZINE]
Ki (Cytochrome P450 2C8 [1]): 54300 nM | Ki (Cytochrome P450 2C8 [2]): 1200 nM | kinact (CYP2C8 [3]): 0.00283 s⁻¹ | kinact (CYP2C8 [4]): 0.00405 s⁻¹

Compound: C#Cc1cc2ccccc2c2ccccc12
kinact (CYP1A2 [5]): 0.000667 s⁻¹ | Ki (Cytochrome P450 1A2): 30 nM | kinact (CYP2B1): 0.0075 s⁻¹ | Ki (Cytochrome P450 2B1 [6]): 140 nM

kinact (CYP1A2 [7]): 0.0148 s⁻¹
Compound: Cc1nc2c([nH]1)c(=O)n(C)c(=O)n2CC1CCCCC1

Compound: O=C(NCCc1ccc(Br)cc1)C(F)Cl (configuration not stated)
mechanism based inhibition (Cytochrome P450 2B1 [8]): Cytochrome P450 mechanistic inhibitor: PMID 1971568

kinact (CYP2B6 [9]): 0.00583 s⁻¹ | Ki (Cytochrome P450 2B6 [10]): 500 nM | kinact (CYP2B6 [11]): 0.0025 s⁻¹ | Ki (Cytochrome P450 2B6 [12]): 1100 nM
Compound: COC(=O)[C@H](c1ccccc1Cl)N1CCc2sccc2C1 [CLOPIDOGREL]

Compound: O=C(NCCc1ccc([N+](=O)[O-])cc1)C(F)Cl (configuration not stated)
mechanism based inhibition (Cytochrome P450 2B1 [8]): Cytochrome P450 mechanistic inhibitor: PMID 1971568

Source: ChEMBL document CHEMBL1743341, “Cytochrome p450 enzymes mechanism based inhibitors: common sub-structures and reactivity” (Curr Drug Metab, 2005)
